Assay results published in publication PMC10052957, “Exploring Synthetic Dihydrobenzofuran and Benzofuran Neolignans as Antiprotozoal Agents against Trypanosoma cruzi” (Pharmaceutics, 2023).
Converted amounts (≈) assume the structure as drawn. Read-outs that look alike come from different tables or passages of the source.

Key:
[1] = tested on: amastigotes forms of the T. cruzi Y strain; assay: In vitro antitrypanosomal activity against amastigotes of moderately drug-resistant T. cruzi Y strain (Giemsa counting in LLC-MK2 cells); assay type: cell-based, Trypanosoma cruzi; conditions: for SI Y Strain: CC50 of LLC-MK2 divided by IC50 at 72 h; for IC50: Trypanosoma cruzi, LLC-MK2, amastigotes, after 72 h, 95% confidence limits in parentheses
[2] = Cytotoxicity in murine spleen cells (propidium iodide, flow cytometry); assay type: cell-based, Swiss mice (Mus musculus); conditions: Swiss, mouse, 95% confidence limits in parentheses
Procedure: The cytotoxicity of DBNs 1–4 was determined using the propidium iodide and trypan blue methodologies. To assess the cytotoxic activity using propidium iodide, mice spleen cells were sown at a concentration of 6.5 × 10^6 cells/mL in a 24-well plate. DBNs 1, 2, 3, 4, and BZN were added at concentrations ranging from 1.95 to 250 µM and incubated for 24 h at 37 °C in a 5% CO2 humidified incubator (Sanyo). After the incubation period, the cells were harvested and incubated with a 10 µg/mL propidium iodide solution (Sigma-Aldrich, St. Louis, MO, USA). The cell acquisition was performed within 15 min using a flow cytometer (BD-FACSCanto™II; BD Biosciences, BR), and cell counting was used to obtain the CC50 (50% cytotoxic concentration).

[3] = Cytotoxicity in LLC-MK2 cells (trypan blue); assay type: cell-based, Monkey (Macaca mulata); conditions: rhesus monkey (Macaca mulatta), 95% confidence limits in parentheses
Procedure: To assess the cytotoxic activity of DBNs 1–4 using trypan blue, LLC-MK2 cells were sown at a concentration of 2 × 10^5 cells per well in 96-well plates. DBNs 1, 2, 3, 4, and BZN previously dissolved with DMSO were added to achieve the concentration range of 6.25-100 µM and incubated at 37 °C in a 5% CO2 humidified incubator (Sanyo) for 72 h. Next, the cells were trypsinized for 30 s, and then 10 μL of the supernatant was stained with 10 μL of a 0.4% trypan blue solution (Synth, São Paulo, Brazil). Cell counting was performed using transmitted light microscopy (Nikon) with 40X magnification using a Neubauer’s chamber (Global Glass), with a total of 100 cells being counted, where cellsstained blue were considered non-viable. Cell counting was used to obtain the CC50.

[4] = tested on: chloroquine-resistant Plasmodium falciparum (strain K1); design: method as in PMID 15653333; conditions: cited from earlier work
[5] = tested on: Leishmania donovani axenic amastigotes; design: method as in PMID 15653333; conditions: cited from earlier work
[6] = tested on: Leishmania donovani infected macrophage; design: method as in PMID 15653333; conditions: cited from earlier work
[7] = tested on: trypomastigote forms of Trypanosoma brucei rhodiense; design: method as in PMID 15653333; conditions: cited from earlier work
[8] = tested on: trypomastigote forms of the T. cruzi Y strain; design: method as in PMID 21570099; conditions: cited from earlier work
[9] = tested on: epimastigote forms of the T. cruzi Y strain; design: method as in PMID 17015964; conditions: cited from earlier work
[10] = tested on: epimastigote forms of the T. cruzi H6 strain; design: method as in PMID 12230115; conditions: cited from earlier work
[11] = tested on: Erythrocytes; assay: Hemolytic activity on defibrinated sheep blood; assay type: cell-based; conditions: sheep red blood cells, 30 min, 37 °C
Procedure: The hemolytic activity was determined as described by Kaplum and co-workers with adaptations. Defibrinated sheep blood was diluted in 0.9% saline solution. Neolignans 1, 2, 3, 4, and BZN were solubilized in DMSO (Sigma-Aldrich, St. Louis, MO, USA) and added to microtubes containing red blood cells in concentrations from 6.25 to 100 µM. […] Distilled water was used as a positive control, and a 0.9% saline solution with 0.1% DMSO was used as the negative control.

[12] = tested on: 60 humor tumor cell lines; design: method as in PMID 10639289; conditions: molar drug concentration required for 50% growth inhibition; cited from earlier work
[13] = value in parentheses, read-out: IC50

In the case of `O=C(Cn1ccnc1[N+](=O)[O-])NCc1ccccc1` [BZN, benznidazole, reference compound], the “SI Y Strain” value [1] is reported as 12.13, the IC50 [1] is reported as 3.56 µM and the CC50 at 24 h [2] is reported as 1.81 µM. It also gave a CC50 at 72 h [3] of 43.2 µM.
In the case of `CCCCOC(=O)C=Cc1cc(O)c2c(c1)C(C(=O)OCCCC)C(c1ccc(O)c(O)c1)O2` (stereo not drawn), the IC50 [4] is given as 0.43 µg/mL (≈ 0.914 µM), the IC50 [5] is given as 0.12 µg/mL (≈ 0.255 µM) and the IC50 [6] is given as 0.19 µg/mL (≈ 0.404 µM). The IC50 [7] was 0.29 µg/mL (≈ 0.616 µM).
Work on `OCC=Cc1ccc2c(c1)C(CO)C(c1ccc(O)cc1)O2` (stereo not drawn) [Compound 9] yielded a melting point of 139 to 140 °C.
In the case of `C/C=C/c1cc(OC)c2c(c1)[C@@H](C)[C@H](c1ccc(O)c(OC)c1)O2` [(+)-licarin], the IC50 [8] is listed as 87.7 µM.
Work on `COC(=O)CCc1ccc2c(c1)C(C(=O)OC)C(c1ccc(O)cc1)O2` (stereo not drawn) [Compound 12] yielded a melting point of 108 to 110 °C.
In the case of eupomatenoid-5, the IC50 [9] is listed as 7.0 µg/mL and the IC50 [9, 13] is listed as 23.8 µM.
For `C/C=C/c1cc(OC)c2c(c1)[C@H](C)[C@@H](c1ccc(O)c(OC)c1)O2` [licarin A], the IC50 [10] is listed as 123 µM.
Work on `COC(=O)/C=C/c1ccc2oc(-c3ccc(O)cc3)c(C(=O)OC)c2c1` [Compound 7] yielded a melting point of 204 to 206 °C.
In the case of `COC(=O)C=Cc1cc(OC)c2c(c1)C(C(=O)OC)C(c1ccc(O)c(OC)c1)O2` (stereo not drawn) [Compound 2], the IC50 [1] is reported as > 25 µM, the CC50 at 24 h [2] is reported as 34.2 µM and the CC50 at 72 h [3] is reported as 67.6 µM. The “CH50 Erythrocytes” value [11] was >100 µM.
With `COC(=O)C=Cc1ccc2c(c1)C(C(=O)OC)C(c1ccc(O)cc1)O2` (mixture of isomers) [Compound 1, (±)-trans-dehydrodicoumarate dimethyl ester] the “SI Y Strain” value [1] was 21.73, the IC50 [1] was 3.26 µM and the CC50 at 24 h [2] was 49.9 µM. The CC50 at 72 h [3] was 70.9 µM and the “CH50 Erythrocytes” value [11] was >100 µM.
In the case of `C/C=C/c1ccc2oc(-c3ccc(O)cc3)c(C)c2c1` [eupomatenoid-6], the IC50 [9] is given as 7.5 µg/mL and the IC50 [9, 13] is given as 28.4 µM.
For `COC(=O)C=Cc1cc(O)c2c(c1)C(C(=O)OC)C(c1ccc(O)c(O)c1)O2` (stereo not drawn) [Compound 3], the IC50 [1] was > 25 µM, the CC50 at 24 h [2] was < 1.95 µM and the CC50 at 72 h [3] was 30.8 µM. The “CH50 Erythrocytes” value [11] was >100 µM and the GI50 [12] was 0.3 µM.
For `C/C=C/c1ccc2c(c1)[C@@H](C)[C@H](c1ccc(O)cc1)O2` [conocarpan], the IC50 [9] is listed as 8.0 µg/mL and the IC50 [9, 13] is listed as 30 µM.
For `COC(=O)C=Cc1cc(OC)c2c(c1)C(C(=O)OC)C(c1ccc(OC(=O)c3ccccc3)c(OC)c1)O2` (stereo not drawn) [Compound 11], the melting point was 109 to 111 °C.
In the case of `C/C=C/c1cc(OC)c2c(c1)[C@H](C)[C@@H](c1ccc(O)c(OC)c1)O2` [(-)-licarin], the IC50 [8] is given as 23.5 µM.
For `COC(=O)C=Cc1ccc2c(c1)C(C(=O)OC)C(c1ccc(OC(C)=O)cc1)O2` (stereo not drawn) [Compound 4], the IC50 [1] was > 25 µM, the CC50 at 24 h [2] was 51.1 µM and the CC50 at 72 h [3] was 67.5 µM. For the same molecule, the “CH50 Erythrocytes” value [11] was >100 µM and the melting point was 103 to 105 °C.
For (±)-licarin, the IC50 [8] is listed as 127 µM.
For Eupatemoid-3, the IC50 [9] is given as 26.3 µg/mL and the IC50 [9, 13] is given as 90.9 µM.
In the case of `C/C=C/c1cc(OC)c2oc(-c3ccc(O)c(OC)c3)c(C)c2c1` [eupomatenoid-7], the IC50 [10] is given as 77 µM.
`OCCCc1ccc2c(c1)C(CO)C(c1ccc(O)cc1)O2` (stereo not drawn) [Compound 14] showed a melting point of 120 to 121 °C.
